Legend:
AR-VP16 [1] = target: T1, AR-VP16 (Homo sapiens, UniProt P10275); experiment: AR-VP16 DNA Binding Assay, agonist mode (HepG2 cells); format: cell-based; details: Emax >20x DMSO control = agonist
T1 sequence (P10275 560-920 limits assumed): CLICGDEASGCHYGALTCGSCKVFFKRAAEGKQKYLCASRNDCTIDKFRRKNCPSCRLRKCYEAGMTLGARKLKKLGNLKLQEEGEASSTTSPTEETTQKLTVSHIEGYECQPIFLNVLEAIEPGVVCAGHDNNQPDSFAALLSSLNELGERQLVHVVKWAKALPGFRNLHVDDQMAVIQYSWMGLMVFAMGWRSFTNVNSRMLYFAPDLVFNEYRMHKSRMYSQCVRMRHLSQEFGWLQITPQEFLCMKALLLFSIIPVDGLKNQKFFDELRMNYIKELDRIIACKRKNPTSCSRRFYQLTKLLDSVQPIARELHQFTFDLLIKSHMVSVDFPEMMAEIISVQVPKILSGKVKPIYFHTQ

AR-VP16 [2] = target: T1, AR-VP16; experiment: AR-VP16 DNA Binding Assay, antagonist mode (HepG2 cells, 0.1 nM R1881); format: cell-based
Method in brief: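 Transfected HepG2 cells expressing AR-VP16 received serially diluted compound in charcoal-stripped-serum RPMI the day after transfection, with 0.1 nM R1881 (final) added only for antagonist testing. After 48 h, cells were lysed for measurement.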

| Structure (SMILES) | ARVP16 DNA Binding Assay (Agonist mode): Agonist? (AR-VP16 [1]) | IC50 (AR-VP16 [2]) [nM] |
| --- | --- | --- |
| COc1cc(F)ccc1N1C(=S)N(c2cnc(C#N)c(C(F)(F)F)c2)C(=O)C12CCC2 [Compound 29, 5-(5-(4-Fluoro-2-methoxyphenyl)-8-oxo-6-thioxo-5,7-diazaspiro[3.4]octan-7-yl)-3-(trifluoromethyl)picolinonitrile] | No (Agonist defined as a compound whose Emax in the ARVP16 DNA Binding Assay (Agonist mode) is >20x DMSO control) | < 1000 |
| Cc1ccc(N2C(=S)N(c3cnc(C#N)c(C)c3)C(=O)C23CCC3)cc1 [Compound 31, 3-Methyl-5-(8-oxo-6-thioxo-5-(p-tolyl)-5,7-diazpiro[3.4]octan-7-yl)picolinonitrile] | No (Agonist defined as a compound whose Emax in the ARVP16 DNA Binding Assay (Agonist mode) is >20x DMSO control) | < 1000 |
| COc1cc(N2C(=S)N(c3cnc(C#N)c(C(F)(F)F)c3)C(=O)C23CCC3)ccc1F [Compound 32, 5-(5-(4-fluoro-3-methoxyphenyl)-8-oxo-6-thioxo-5,7-diazaspiro[3.4]octan-7-yl)-3-(trifluoromethyl)picolinonitrile] | No (Agonist defined as a compound whose Emax in the ARVP16 DNA Binding Assay (Agonist mode) is >20x DMSO control) | < 1000 |
| Cc1ccc(N2C(=S)N(c3cnc(C#N)c(C(F)(F)F)c3)C(=O)C2(C)C)cc1 [Compound 33, 5-(4,4-Dimethyl-5-oxo-2-thioxo-3-(p-tolyl)imidazolidin-1-yl)-3-(trifluoromethyl)picolinonitrile] | No (Agonist defined as a compound whose Emax in the ARVP16 DNA Binding Assay (Agonist mode) is >20x DMSO control) | < 1000 |
| Cc1ccc(N2C(=S)N(c3ccc(C#N)c(C(F)(F)F)n3)C(=O)C23CCC3)cc1 [Compound 34, 6-(8-Oxo-6-thioxo-5-(p-tolyl)-5,7-diazaspiro[3.4]octan-7-yl)-2-(trifluoromethyl)nicotinonitrile] | No (Agonist defined as a compound whose Emax in the ARVP16 DNA Binding Assay (Agonist mode) is >20x DMSO control) | > 1000 |
| CNC(=O)c1ccc(N2C(=S)N(c3ccc(C#N)c(C(F)(F)F)n3)C(=O)C23CCC3)cc1F [Compound 35, 4-(7-(5-Cyano-6-(trifluoromethyl)pyridin-2-yl)-8-oxo-6-thioxo-5,7-diazaspiro[3.4]octan-5-yl)-2-fluoro-N-methylbenzamide] | No (Agonist defined as a compound whose Emax in the ARVP16 DNA Binding Assay (Agonist mode) is >20x DMSO control) | > 1000 |
| N#Cc1ncc(N2C(=O)C3(CCC3)N(c3ccc(F)cc3O)C2=S)cc1C(F)(F)F [Compound 38, 5-(5-(4-Fluoro-2-hydroxyphenyl)-8-oxo-6-thioxo-5,7-diazaspiro[3.4]octan-7-yl)-3-(trifluoromethyl)picolinonitrile] | No (Agonist defined as a compound whose Emax in the ARVP16 DNA Binding Assay (Agonist mode) is >20x DMSO control) | > 1000 |
| N#Cc1ncc(N2C(=O)C3(CCC3)N(c3ccc(Oc4cccnc4)cc3)C2=S)cc1C(F)(F)F [Compound 39, 5-(8-Oxo-5-(4-(pyridin-3-yloxy)phenyl)-6-thioxo-5,7-diazaspiro[3.4]octan-7-yl)-3-(trifluoromethyl)picolinonitrile] | Yes (Agonist defined as a compound whose Emax in the ARVP16 DNA Binding Assay (Agonist mode) is >20x DMSO control) | < 1000 |
| N#Cc1ncc(N2C(=O)C3(CCC3)N(c3ccc(Oc4ccncc4)cc3)C2=S)cc1C(F)(F)F [Compound 40, 5-(8-Oxo-5-(4-(pyridin-4-yloxy)phenyl)-6-thioxo-5,7-diazaspiro[3.4]octan-7-yl)-3-(trifluoromethyl)picolinonitrile] | No (Agonist defined as a compound whose Emax in the ARVP16 DNA Binding Assay (Agonist mode) is >20x DMSO control) | < 1000 |
| N#Cc1ncc(N2C(=O)C3(CCC3)N(c3ccc(OC(F)(F)F)cc3)C2=S)cc1C(F)(F)F [Compound 44, 5-(8-Oxo-6-thioxo-5-(4-(trifluoromethoxy)phenyl)-5,7-diazaspiro[3.4]octan-7-yl)-3-(trifluoromethyl)picolinonitrile] | No (Agonist defined as a compound whose Emax in the ARVP16 DNA Binding Assay (Agonist mode) is >20x DMSO control) | < 1000 |
| N#Cc1ncc(N2C(=O)C3(CCC3)N(c3cccc(OC(F)(F)F)c3)C2=S)cc1C(F)(F)F [Compound 45, 5-(8-Oxo-6-thioxo-5-(3-(trifluoromethoxy)phenyl)-5,7-diazaspiro[3.4]octan-7-yl)-3-(trifluoromethyl)picolinonitrile] | No (Agonist defined as a compound whose Emax in the ARVP16 DNA Binding Assay (Agonist mode) is >20x DMSO control) | < 1000 |
| N#Cc1ncc(N2C(=O)C3(CCC3)N(c3ccc(C(F)(F)F)cc3)C2=S)cc1C(F)(F)F [Compound 46, 5-(8-Oxo-6-thioxo-5-(4-(trifluoromethyl)phenyl)-5,7-diazaspiro[3.4]octan-7-yl)-3-(trifluoromethyl)picolinonitrile] | No (Agonist defined as a compound whose Emax in the ARVP16 DNA Binding Assay (Agonist mode) is >20x DMSO control) | < 1000 |
| Cc1ccc(N2C(=S)N(c3cnc(C#N)c(C(F)(F)F)c3)C(=O)C23CCC3)cc1F [Compound 49, 5-(5-(3-Fluoro-4-methylphenyl)-8-oxo-6-thioxo-5,7-diazaspiro[3.4]octan-7-yl)-3-(trifluoromethyl)picolinonitrile] | No (Agonist defined as a compound whose Emax in the ARVP16 DNA Binding Assay (Agonist mode) is >20x DMSO control) | < 1000 |
| Cc1ccc(N2C(=S)N(c3cnc(C#N)c(C(F)(F)F)c3)C(=O)C23CCC3)c(F)c1 [Compound 50, 5-(5-(2-Fluoro-4-methylphenyl)-8-oxo-6-thioxo-5,7-diazaspiro[3.4]octan-7-yl)-3-(trifluoromethyl)picolinonitrile] | No (Agonist defined as a compound whose Emax in the ARVP16 DNA Binding Assay (Agonist mode) is >20x DMSO control) | < 1000 |
| N#Cc1ncc(N2C(=O)C3(CCC3)N(c3ccc4cnccc4c3)C2=S)cc1C(F)(F)F [Compound 51, 5-(5-(Isoquinolin-6-yl)-8-oxo-6-thioxo-5,7-diazaspiro[3.4]octan-7-yl)-3-(trifluoromethyl)picolinonitrile] | No (Agonist defined as a compound whose Emax in the ARVP16 DNA Binding Assay (Agonist mode) is >20x DMSO control) | < 1000 |
| Cc1cc(N2C(=O)C3(CCC3)N(c3ccc(O)c(F)c3)C2=S)cnc1C#N [Compound 54, 5-(5-(3-Fluoro-4-hydroxyphenyl)-8-oxo-6-thioxo-5,7-diazaspiro[3.4]octan-7-yl)-3-methylpicolinonitrile] | No (Agonist defined as a compound whose Emax in the ARVP16 DNA Binding Assay (Agonist mode) is >20x DMSO control) | > 1000 |
| Cc1ccc(N2C(=S)N(c3cnc(C#N)c(Cl)c3)C(=O)C23CCC3)cc1 [Compound 57, 3-Chloro-5-(8-oxo-6-thioxo-5-(p-tolyl)-5,7-diazaspiro[3.4]octan-7-yl)picolinonitrile] | No (Agonist defined as a compound whose Emax in the ARVP16 DNA Binding Assay (Agonist mode) is >20x DMSO control) | < 1000 |
| COc1cc(N2C(=O)C3(CCC3)N(c3ccc(C)cc3)C2=S)cnc1C#N [Compound 59, 3-Methoxy-5-(8-oxo-6-thioxo-5-(p-tolyl)-5,7-diazaspiro[3.4]octan-7-yl)picolinonitrile] | No (Agonist defined as a compound whose Emax in the ARVP16 DNA Binding Assay (Agonist mode) is >20x DMSO control) | < 1000 |
| CNC(=O)c1ccc(N2C(=S)N(c3cnc(C#N)c(OC)c3)C(=O)C23CCC3)cc1F [Compound 60, 4-(7-(6-Cyano-5-methoxypyridin-3-yl)-8-oxo-6-thioxo-5,7-diazaspiro[3.4]octan-5-yl)-2-fluoro-N-methylbenzamide] | Yes (Agonist defined as a compound whose Emax in the ARVP16 DNA Binding Assay (Agonist mode) is >20x DMSO control) | < 1000 |
| Cc1ccc(N2C(=S)N(c3cnc(-c4cccnc4)c(C(F)(F)F)c3)C(=O)C23CCC3)cc1 [Compound 61, 6-Thioxo-5-(p-tolyl)-7-(3-(trifluoromethyl)-[2,3′-bipyridin]-5-yl)-5,7-diazaspiro[3.4]octan-8-one] | No (Agonist defined as a compound whose Emax in the ARVP16 DNA Binding Assay (Agonist mode) is >20x DMSO control) | > 1000 |
| Cc1ccc(N2C(=S)N(c3ccc4nccn4c3)C(=O)C23CCC3)cc1 [Compound 62, 7-(Imidazo[1,2-a]pyridin-6-yl)-6-thioxo-5-(p-tolyl)-5,7-diazaspiro[3.4]octan-8-one] | No (Agonist defined as a compound whose Emax in the ARVP16 DNA Binding Assay (Agonist mode) is >20x DMSO control) | > 1000 |
| Cc1ccc(N2C(=S)N(c3cnc(C#N)c4ccccc34)C(=O)C23CCC3)cc1 [Compound 65, 4-(8-Oxo-6-thioxo-5-(p-tolyl)-5,7-diazaspiro[3.4]octan-7-yl)isoquinoline-1-carbonitrile] | Yes (Agonist defined as a compound whose Emax in the ARVP16 DNA Binding Assay (Agonist mode) is >20x DMSO control) | < 1000 |

Source: patent US9108944B2, “Androgen receptor modulators and uses thereof” (ARAGON PHARMACEUTICALS, INC., priority 2010, dated 2015)
